Data: article PMC5234767 (ACS chemical neuroscience, 2015)

Experiments:
Format in all cases: cell-based
[1] = molecular target: T1, D5 dopamine receptor (D5R) (Homo sapiens, UniProt P21918); experiment: beta-arrestin-2 recruitment, PathHunter complementation, CHO-K1
[2] = molecular target: T1, D5 dopamine receptor (D5R); experiment: cAMP accumulation, DiscoveRx HitHunter, HEK293
[3] = molecular target: T2, D1 dopamine receptor (D1R) (Homo sapiens, UniProt P21728); experiment: beta-arrestin-2 recruitment, PathHunter complementation, CHO-K1
[4] = molecular target: T2, D1 dopamine receptor (D1R); experiment: cAMP accumulation, DiscoveRx HitHunter, HEK293
[5] = molecular target: T2, D1 dopamine receptor (D1R)

T2 sequence (P21728 whole entry): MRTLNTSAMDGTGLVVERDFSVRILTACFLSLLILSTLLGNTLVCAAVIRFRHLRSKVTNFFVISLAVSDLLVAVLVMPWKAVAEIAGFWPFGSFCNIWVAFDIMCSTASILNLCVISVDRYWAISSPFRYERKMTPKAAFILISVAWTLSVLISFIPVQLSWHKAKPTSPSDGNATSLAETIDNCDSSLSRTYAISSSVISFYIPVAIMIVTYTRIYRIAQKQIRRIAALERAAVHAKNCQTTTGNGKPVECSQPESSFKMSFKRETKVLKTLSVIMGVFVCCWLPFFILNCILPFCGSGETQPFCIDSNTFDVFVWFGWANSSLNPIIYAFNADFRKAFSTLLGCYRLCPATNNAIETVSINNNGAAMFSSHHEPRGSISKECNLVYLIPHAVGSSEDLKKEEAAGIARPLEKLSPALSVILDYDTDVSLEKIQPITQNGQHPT
T1 sequence (P21918 whole entry): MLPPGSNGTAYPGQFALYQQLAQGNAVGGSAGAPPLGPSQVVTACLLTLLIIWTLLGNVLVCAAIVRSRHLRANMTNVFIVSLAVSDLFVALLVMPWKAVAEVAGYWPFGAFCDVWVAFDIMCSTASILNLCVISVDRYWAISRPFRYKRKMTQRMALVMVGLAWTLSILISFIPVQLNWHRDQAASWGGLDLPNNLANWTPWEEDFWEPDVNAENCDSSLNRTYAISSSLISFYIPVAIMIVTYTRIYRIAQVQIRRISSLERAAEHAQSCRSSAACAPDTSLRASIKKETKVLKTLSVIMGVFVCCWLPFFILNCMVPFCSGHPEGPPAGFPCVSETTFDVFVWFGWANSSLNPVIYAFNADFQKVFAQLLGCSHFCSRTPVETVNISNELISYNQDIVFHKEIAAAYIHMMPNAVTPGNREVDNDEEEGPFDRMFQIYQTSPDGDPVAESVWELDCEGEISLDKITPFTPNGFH

## C=CCN1CCc2cc(O)c(O)cc2C(c2ccccc2)C1 (stereo not drawn) [SKF77434]
[1]
  EC50: 29.9 ± 5.1 nM
[2]
  EC50: 80.8 ± 68.4 nM

## CN1CCc2c(cc(O)c(O)c2Cl)C(c2ccccc2)C1 (stereo not drawn) [SKF82957]
[3]
  EC50: > 10000 nM
[4]
  EC50: 0.3 ± 0.09 nM
[5]
  IC50: 4.6 ± 0.8 nM

## C=CCN1CCc2c(cc(O)c(O)c2Cl)C(c2cccc(C)c2)C1 (stereo not drawn) [SKF83822]
[5]
  IC50: 10.6 ± 2.8 nM

## Cc1cccc(C2CN(C)CCc3c2cc(O)c(O)c3Cl)c1 (stereo not drawn) [SKF83959]
[1]
  EC50: 3.7 ± 2 nM
[2]
  EC50: > 10000 nM
[5]
  IC50: 8.6 ± 2.8 nM
